The record followed here is PubChem BioAssay (NCI).

Common to all, as to assay: growth of human tumour cells (NCI), 48 h
The test system of assay [1] is LXFL 529 NSCLC.
Assay [2] has as its system DMS 114 small cell lung.
Assay [3] relates to RXF-631 renal.
In assay [4] the test system is M19-MEL melanoma.
The test system of assay [5] is KM20L2 colon.
Assay [6] relates to DLD-1 colon.
In assay [7] the test system is XF 498 CNS.
In assay [8] the test system is NCI/ADR-RES ovarian.
The test system of assay [9] is MDA-N.

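Growth conditions: 96-well plates. Treatment: test compound, 48 hours, 5 concentrations. Analysis: linear interpolation between bracketing concentrations; unreached endpoints set to highest concentration. Abbreviation: GI50, concentration required for 50% inhibition of growth. Definition used: TGI = concentration required for complete inhibition of growth.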 *1 amine or outer side, *2 acyl side, *3 side chain or, on linkers, in order; H or OH if unused. Where a SMILES comes first, the peptide text is derived from it. [ ]: non-standard residue; d: D form. X56 = CC[C@H](C)[C@H](OC(=O)[C@@H](C)[C@@H](CC)N[*:1])C(=O)[*:2]; X32 = C[C@H](N[*:1])C(=O)C(C)(C)C(=O)[*:2]; NMeY = CN[C@@H](Cc1ccc(O)cc1)C(=O)O; NMeL = CN[C@@H](CC(C)C)C(=O)O; NMeV = CN[C@H](C(=O)O)C(C)C Some results are limits rather than exact numbers.

Take `COc1ccc(-c2c(N)[n+]([O-])c3ccccc3[n+]2[O-])cc1OC`: the TGI in [1], in assay [2], in assay [3], in assay [4], in assay [5] and in assay [6] was greater than 100 µM throughout.
In the case of `CC1C(=O)O[C@H]2C1CC[C@@]1(C)[C@H](O)CC[C@@]13C[C@]2(O)OO3` (some centres not stated), the TGI in assay [1], in [2], in assay [4], in [5] and in assay [6] was greater than 100 µM throughout.
As for `CCC(C(=O)c1ccccc1)C(CCCC(=O)Nc1c(C)cccc1C)N=O` (configuration not stated), the TGI in [1], in assay [3], in [4], in assay [7], in [5] and in [6] was greater than 100 µM each time.
In the case of `O=C(NCc1ccncc1)C1COc2cc(-c3cc(=O)c4ccccc4o3)ccc2O1` (configuration not stated), the TGI in assay [1], in assay [4], in assay [7], in assay [5] and in [6] was greater than 100 µM throughout.
For `O=[N+]([O-])c1ccc(Cl)cc1N/N=C/c1cccc2cccnc12`, the TGI in [8] and in assay [9] was greater than 100 µM each time.
Consider `N#CC1C2CCC3(CC2CCN1C(=O)c1ccccc1)OCCO3` (configuration not stated), for which the TGI in assay [1], in assay [2], in [4], in assay [7], in [5] and in assay [6] was greater than 100 µM each time.
As to `C1=Nc2ccccc2C=Nc2ccccc2C=Nc2ccccc2C=Nc2ccccc21.[Cl-].[Pt+2]`, the GI50 in assay [1] is 10.3 µM; in assay [2], 12.1 µM; in [3], 30.9 µM; in [4], 22.2 µM; in assay [7], 18.4 µM; in assay [5] it was 21 µM. For the same compound, in assay [6], the GI50 is 17.8 µM. Further, the TGI in assay [1] is 60 µM; in [2], 46.2 µM; in [3], 77.9 µM; in assay [4] it was greater than 100 µM; in assay [7], 51.1 µM; in assay [5] it was 58 µM. For the same compound, the TGI in assay [6] is 98.4 µM.
`O=c1c2cccnc2ncn1CCN1CCCC1`: the TGI in assay [1], in [2], in [4], in assay [7], in assay [5] and in [6] was greater than 100 µM in each case.
Turning to `Nc1nc(-c2cccc([N+](=O)[O-])c2)cc(-c2cc(-c3cccc([N+](=O)[O-])c3)nc(N)n2)n1`, the TGI in assay [8] and in assay [9] was greater than 100 µM throughout.
As to `CC[C@H](C)[C@@H]1OC(=O)[C@@H](C)[C@@H](CC)NC(=O)[C@H](C)NC(=O)C(C)(C)C(=O)[C@H](C)NC(=O)[C@H](Cc2ccc(OC)cc2)N(C)C(=O)[C@H](C(C)C)N(C)C(=O)CNC(=O)[C@H](CC(C)C)N(C)C(=O)CNC1=O` (cyclo(A[X56]G[NMeL]G[NMeV][NMeY](Me)[X32])), the TGI in assay [1] was 0.0823 µM; in assay [8] it was 9.92 µM; in [2], 1.13 µM; in assay [4] it was 22.3 µM; in [7], 0.173 µM; in assay [5], 16.7 µM. The compound further returned a TGI in [6] of 2.12 µM.
Regarding `COc1ccccc1-c1cc(=O)c2ccc(OC)c(OC)c2o1`, the TGI in assay [8] and in assay [9] was greater than 100 µM each time.
In the case of `Cc1ccc(Oc2ccc([N+](=O)[O-])cc2[N+](=O)[O-])c(C)c1`, the TGI in assay [1], in assay [2], in assay [3], in [4], in [7] and in assay [6] was greater than 100 µM in each case.
Turning to `CC1(O)CCC2(C#N)CCC1C2O` (configuration not stated), the TGI is greater than 100 µM in assay [1]; 31.1 µM in assay [2]; greater than 100 µM in assay [3]; greater than 100 µM in [4]; greater than 100 µM in assay [7]; greater than 100 µM in assay [5]. Further, the TGI in assay [6] is greater than 100 µM.
For the compound `N#C/C(=C\c1ccc(C(O)P(=O)(O)O)cc1)C(N)=O` (configuration not stated), the TGI in assay [1], in assay [2], in assay [3], in [4], in [7] and in assay [5] was greater than 100 µM in each case. In assay [6], this compound returned a TGI greater than 100 µM.
As for `CC/C=C/c1cc2cc[nH]c2c2c1C(C)C[C@@H]2C` (some centres not stated), the TGI in assay [1] was 41.9 µM; in [2], 51 µM; in [4], 77.3 µM; in assay [6], greater than 100 µM.
As for `COc1ccc(/C=C/NC=O)cc1`, the TGI in assay [8] and in [9] was greater than 100 µM throughout.
On to `CCOP(=O)(OCC)C1=NC=CC=CC1n1c(-c2ccccc2)nn(CC)c1=O` (configuration not stated), for which the TGI in assay [1], in [2], in [3], in [4], in assay [5] and in assay [6] was greater than 100 µM each time.
Turning to `COc1cc2c(c(OC)c1OC)-c1ccc(OC)c(=O)cc1[C@@H](N(C)C=O)CC2`, the TGI was greater than 100 µM in assay [1]; greater than 26.2 µM in assay [3]; greater than 100 µM in assay [4]; greater than 23 µM in assay [7]; greater than 100 µM in [6].
As for `Cc1c2c(cc3c(=O)ccn(CCN(C)C)c13)c(=O)ccn2CCN(C)C`, the TGI in assay [1] was 19.8 µM; in assay [2] it was 30.1 µM; in [4], 30.2 µM; in [7] it was 22.9 µM; in assay [5], 20.8 µM; in assay [6] it was 28.7 µM.
Take `COc1cc(/C=C(\OC(C)=O)c2ccc3c(c2)OCO3)cc(OC)c1OC`: the TGI in [1] was 34.9 µM; in [2], 29 µM; in assay [4], 30.9 µM; in assay [7], 27.7 µM; in assay [5] it was greater than 100 µM; in assay [6], 60.6 µM.
In the case of `O=C(c1ccc(Cl)cc1)c1ccc(OCCSCCCCCCCCCCSCCOc2ccc(C(=O)c3ccc(Cl)cc3)cc2)cc1`, the TGI in assay [3], in assay [4], in assay [5] and in [6] was greater than 100 µM in each case.
On to `CS(=O)(=O)OCCN(CCOS(C)(=O)=O)c1ccc(C=O)cc1`, for which the TGI was 47.4 µM in assay [1]; greater than 80.8 µM in assay [8]; 28.2 µM in assay [2]; 27.2 µM in assay [9]; 30.2 µM in assay [4]; 5.85 µM in assay [7]. The TGI in assay [5] is 17.8 µM; in assay [6], greater than 84 µM.
Consider `COc1cc(Nc2nc3ccc(C(F)(F)F)cc3nc2-c2ccccc2)cc(OC)c1OC`, for which the TGI is greater than 100 µM in [1], 26 µM in assay [5] and greater than 100 µM in assay [6].
Take `C=C1C(=O)OC2CC(C)C3C=CC(=O)C3CC12` (configuration not stated): the TGI in assay [1] was 2.67 µM; in assay [2], 6.22 µM; in [9], 5.73 µM; in assay [3] it was 13.7 µM; in assay [4] it was 9.19 µM; in [7], 3.4 µM. The compound also gave a TGI in assay [5] of 12.8 µM.
Regarding `CSc1ncnc2c1CCN2`, the TGI in [1] is greater than 100 µM; in assay [2], greater than 100 µM; in [9], 8.6 µM; in assay [4] it was greater than 100 µM.
As for `CC1(C)CC2(C)CC1CC2NC(=O)CCN1CCOCC1` (configuration not stated), in assay [9], the TGI is greater than 100 µM.
With `Cc1ccc2c(c1)CNc1ccc(C)cc1CN2`, the TGI in assay [1], in assay [2], in assay [4], in assay [7] and in assay [6] was greater than 100 µM in each case.
As for `CCOC(=O)CSc1[nH]c(NC(=S)Nc2ccccc2)c(C(N)=O)c1C(N)=O`, in assay [9], the TGI was greater than 10 µM.
As for `N#CC1CC2(C(=O)C1=O)c1ccccc1-c1ccccc12` (configuration not stated), the TGI in assay [1], in [2], in [4], in assay [5] and in assay [6] was greater than 100 µM in each case.
Take `Cc1nc(C(N)=S)sc1C(=O)C/C(=N/N)C(=O)Nc1ccc(Cl)cc1`: the TGI in [8] and in [9] was greater than 100 µM in each case.
`NNC(=O)/C(NC(=O)c1ccccc1)=C(\N)c1ccc(Cl)cc1`: the TGI in [1], in assay [2], in assay [4], in [5] and in [6] was greater than 100 µM each time.
As to `C1COCCOCCOCCOCCO1.CC(=O)[CH-]C(C)=O.CC(=O)[CH-]C(C)=O.CC(=O)[CH-]C(C)=O.[V]`, the GI50 in assay [1] is 20.7 µM; in assay [2], 28.3 µM; in [5], 27.4 µM; in assay [6], 28 µM. The TGI in [1] is 41.2 µM; in assay [2] it was 82.1 µM; in assay [5] it was 61.7 µM; in [6] it was greater than 100 µM.
For the compound `O=c1c2ccccc2nc(-c2cccc(Cl)c2)n1NCC1(O)OCC(O)C(O)C1O` (configuration not stated), the TGI in [1], in assay [2], in [3], in assay [4] and in assay [5] was greater than 100 µM each time.
Turning to `Cc1cccc(C)c1NC(=O)CCc1n[nH]c(=S)o1`, the TGI in assay [1], in assay [2], in assay [4], in assay [5] and in [6] was greater than 100 µM throughout.
For `C=CC1=C(C)C2=NC1=CC1=NC(=CC3=C(C)C4=C(O)C(C(=O)OC)C(=C5NC(=C2)C(C)C5CCC(=O)OC)C4=N3)C(CC)=C1C` (configuration not stated), the TGI in assay [9] was greater than 100 µM.
In turn, `NC(CC1=CCC=CC1)C(=O)O` (configuration not stated) gave a TGI in assay [9] greater than 100 µM.
Take `S=c1nc(N2CCCCC2)ss1`: the TGI in assay [1] is 54.2 µM; in [2] it was 42.4 µM; in assay [3], 79.4 µM; in assay [4], 52.3 µM; in [7], 44.7 µM; in assay [5], greater than 100 µM. The TGI in assay [6] is greater than 100 µM.
As for `COc1cc(OC)c(C(=O)/C=C/c2cccc(OC(C)=O)c2)cc1CC=C(C)C`, in [8], the GI50 was 7.62 µM and the TGI amounted to 31.3 µM.
With `CC(=O)OC1Oc2ccccc2-c2oc(=O)c(-c3cc4ccccc4oc3=O)cc21` (configuration not stated), in assay [8], the GI50 is 22.5 µM and the TGI came out at 51.3 µM.
As to `CC(=O)/C=C/c1ccc(C)cc1`, the TGI in assay [1], in assay [2], in assay [4], in assay [5] and in [6] was greater than 100 µM throughout.
For the compound `CC(C)CN(CC(C)C)C(=O)C1CCCC[C@@H]1C(=O)O` (some centres not stated), the TGI in assay [1], in [2], in assay [3], in assay [4], in assay [5] and in [6] was greater than 100 µM each time.
As to `COc1cc2c(cn1)[nH]c1ccccc12`, the TGI in assay [1], in [2], in assay [3], in assay [7], in assay [5] and in assay [6] was greater than 100 µM in each case.
Consider `Cc1c(N=Cc2ccc(N(CCC#N)CCC#N)cc2)c(=O)n(-c2ccccc2)n1C`, for which the TGI in assay [1] is greater than 100 µM; in assay [8], greater than 100 µM; in [2], greater than 100 µM; in assay [9], greater than 100 µM; in assay [4] it was greater than 100 µM; in [7], greater than 80.6 µM. The TGI in assay [5] and in [6] was greater than 100 µM each time.
Regarding `O=C(COc1cccc(/C=C2\CSc3ccccc3C2=O)c1)c1ccc(Cl)cc1`, in assay [8], the GI50 is 2.66 µM and the TGI worked out at 7.33 µM.
Regarding `CCNCCCn1c2c(c3ccc([N+](=O)[O-])cc3c1=O)C(=O)c1cc(OC)cnc1-2`, in assay [8], the GI50 is 0.0559 µM and the TGI worked out at 0.689 µM.
The matching figures for `C[C@H](N)C(=O)N1C[C@H](CCCB(O)O)[C@](N)(C(=O)O)C1`: greater than 100 µM and greater than 100 µM.
